From patent publication US9682013B2, “Pharmaceutical compositions comprising human antibodies to PCSK9” (SANOFI BIOTECHNOLOGY, priority 2011, dated 2017)

Legend:
[1] = test system: patients with an elevated LDL-C (≧100 mg/dL or 2.59 mmol/L) treated with a stable dose of atorvastatin 10 mg; assay: Study 2: randomized, double-blind, placebo-controlled 8-week study of 316P 150 mg E2W with atorvastatin 10 mg or 80 mg; type: in vivo, human; conditions: placebo+atorvastatin 80 mg group, previously on atorvastatin 10 mg
Procedure: This was a randomized, double-blind, 3-parallel-groups, placebo-controlled, fixed dose/dose regimen, multicenter, 8-week study in subjects with primary hypercholesterolemia, aged 18-75 years. One aim of this study was to assess the efficacy and safety of 316P in patients with an elevated LDL-C (≧100 mg/dL or 2.59 mmol/L) treated with a stable dose of atorvastatin 10 mg.
During the screening period, patients had to be stabilized to atorvastatin 10 mg for at least 6 weeks, if they are not already. Then, after 1 additional screening week, patients were centrally randomized via IVRS/IWRS in a 1:1:1 ratio to one of the 3 treatment groups (placebo for 316P+atorvastatin 80 mg, 316P 150 mg E2W+atorvastatin 80 mg, 316P 150 mg E2W+atorvastatin 10 mg) and treated in a double-blind manner for approximately 8 weeks. 316P was administered every 2 weeks on site trough subcutaneous injection and atorvastatin was administered orally once daily in the evening at home. The double-blind treatment period was then followed by an 8-week follow-up period.
Inclusion criteria: • Patients (patients receiving a lipid lowering treatment other than atorvastatin/or not at stable dose of atorvastatin 10 mg for at least 6 weeks prior to screening period, or drug naive patients) with primary hypercholesterolemia likely to have low-density lipoprotein cholesterol (LDL-C)≧100 mg/dL (≧2.59 mmol/L) at the end of the run-in period on atorvastatin therapy (Week-1). • OR • Patients with primary hypercholesterolemia treated with stable dose of atorvastatin 10 mg for at least 6 weeks prior to screening period and likely to have low-density lipoprotein cholesterol (LDL-C)≧100 mg/dL (≧2.59 mmol/L) at the screening visit (Week-1).
Duration of Study Period Per Subject:
• Arm 1: The first group of patients receives one subcutaneous injection of 1 mL of antibody 316P, administered in the abdomen every two weeks, with a dose regimen at 150 mg, for a double-blind treatment period of 8 weeks; • Atorvastatin is administered once per day at a stable dose of 10 mg as background therapy. • Atorvastatin is administered at a dose of 80 mg once during the double-blind treatment period of 8 weeks. • Arm 2: The second group of patients receives one subcutaneous injection of 1 mL of a placebo solution, administered in the abdomen every two weeks, with a dose regimen at 150 mg, for a double-blind treatment period of 8 weeks; • Atorvastatin is administered once per day at a stable dose of 10 mg as background therapy. • Atorvastatin is administered at a dose of 80 mg (2 over-encapsulated atorvastatin 40 mg tablets) once during the double-blind treatment period of 8 weeks. • Arm 3: The third group of patients receives one subcutaneous injection of 1 mL of antibody 316P, administered in the abdomen every two weeks, with a dose regimen at 150 mg, for a double-blind treatment period of 8 weeks; • Atorvastatin is administered once per day at a stable dose of 10 mg as background therapy. • Atorvastatin is administered at a dose of 10 mg (1 over-encapsulated atorvastatin 10 mg tablet+1 matching placebo tablet) once during the double-blind treatment period of 8 weeks. Primary and Key Secondary Endpoints Primary Endpoints
The primary efficacy variable is the percent change in calculated LDL-C from baseline to Week 8, which is defined as: 100×(calculated LDL-C value at Week 8-calculated LDL-C value at baseline)/calculated LDL-C value at baseline.
In case of unavailable calculated LDL-C value at Week 8 as defined above, then the last calculated LDL-C value measured during the efficacy period and before the Week 8 time window was used to impute the missing Week 8 calculated LDL-C value (Last Observation Carried Forward [LOCF] procedure). […]

[2] = test system: male Syrian hamster; assay: Study 4: cholesterol lowering effect of 316P alone and with atorvastatin in hamster; type: in vivo; conditions: treatment alone up to the maximal tolerated dose
Text: This is an animal study on the cholesterol lowering effect of 316P, a fully human PCSK9 blocking monoclonal antibody in male Syrian hamster
The aim of this study was to investigate the effect of 316P, a human monoclonal antibody to human PCSK9, alone and in combination with statins on expression of the hepatic LDLR and the resulting effects on serum LDL-C.
The maximal effect on LDL-C (−17/−27/−60%) was seen within 7 days. PK data of 316P are in line with the dose-dependent effect on LDL-C.

[3] = test system: patients with genotype-confirmed hoFH; conditions: ezetimibe 10 mg/day added to maximal dose of statins; cited from earlier work

## CC(C)c1c(C(=O)Nc2ccccc2)c(-c2ccccc2)c(-c2ccc(F)cc2)n1CC[C@@H](O)C[C@@H](O)CC(=O)O [atorvastatin, reference compound]
[1]
  median reduction from baseline in LDL-C at 8 weeks: −26.9%
[2]
  LDL-C: did not decrease LDL-C
  hepatic LDLR expression: no effect

## O=C1[C@H](CC[C@H](O)c2ccc(F)cc2)[C@@H](c2ccc(O)cc2)N1c1ccc(F)cc1 [ezetimibe]
[3]
  total reduction of LDL-C levels: 27%
